Measurements published in patent US20200017490A1, “Novel Mesoionic Insecticidal Compound” (Nippon Kayaku Kabushiki Kaisha, priority 2016, published 2020).

Tests used:
Assay in all cases: whole plant or invertebrate
Format in all cases: in vivo
[1] = tested on: Brown Planthopper (Nilaparvata lugens); details: foliar, 120 h, rice seedling foliage dipping, third instar larvae, 5 days after the treatment, 25° C.
Method: Biological Test Example 3: Test (Foliage Dipping) for Controlling Brown Planthopper (Nilaparvata lugens)
Ten sampled rice seedlings were dipped in the chemical solution of the test compounds diluted with water to 200 ppm in an amount of 20 mL and air-dried. After air-drying, the rice seedlings held with urethane in a glass cylinder having an inner diameter of 4.5 cm and a length of 14 cm were set up in a plastic cup containing 40 mL of water. Larvae of brown planthoppers in the third instar larva were released in the glass cylinder. The cylinder was covered with a lid of medicine paper and kept in a chamber at a constant temperature of 25° C. for rearing.

[2] = tested on: Southern Yellow thrips (Thrips palmi); details: 72 h, foliar spraying on cucumber leaf, first instar larvae, 3 days after the treatment, 25° C.
Method: Biological Test Example 5: Test (Foliar Spraying) for Controlling Southern Yellow thrips (Thrips palmi)
A cucumber leaf cut to a diameter of 1.5 cm was placed on cotton wool moistened with water. The diluent of the test compounds diluted with water to 200 ppm in an amount of 2 mL was sprayed onto the cucumber leaves with a spray tower. After air-drying, 5 larvae of southern yellow thrips in the first instar larva were released there and placed with cotton wool in a plastic cup, which was covered with a lid and kept in a chamber at a constant temperature of 25° C. for rearing.

[3] = tested on: Cotton Aphid (Aphis gossypii); details: 120 h, foliar spraying on cucumber leaf, cotton aphid offspring, 5 days after the treatment, 25° C.
Method: Biological Test Example 1: Test (Foliar Spraying) for Controlling Cotton Aphid (Aphis gossypii)
A cucumber leaf cut to a diameter of 3.5 cm was placed on cotton wool moistened with water. Two adult cotton aphids were released there for offspring for 24 hours and the adult insects were then removed. The diluent of the test compounds diluted with water to 200 ppm in an amount of 2 mL was sprayed onto the cucumber leaves with a spray tower. After air-drying, the sample with cotton wool was placed in a plastic cup, which was covered with a lid and kept in a chamber at a constant temperature of 25° C. for rearing.

[4] = tested on: Diamondback Moth (Plutella xylostella); details: foliar, 120 h, cabbage leaf dipping, third instar larvae, 5 days after the treatment, 25° C.
Method: Biological Test Example 2: Test (Foliage Dipping) for Controlling Diamondback Moth (Plutella xylostella)
A cabbage leaf cut to a diameter of 5.0 cm was dipped in the diluent of the test compounds diluted with water to 200 ppm in an amount of 20 mL and air-dried. After air-drying, the cabbage leaf was placed in a plastic cup, and 10 larvae of diamondback moths in the third instar larva were released there. The cup was covered with a lid and kept in a chamber at a constant temperature of 25° C. for rearing.

[5] = tested on: Brown Planthopper (Nilaparvata lugens); details: rice seedling root dipping, third instar larvae released after 2 days, 5 days after the treatment, 25° C.
Method: Biological Test Example 4: Test (Root Dipping) for Controlling Brown Planthopper (Nilaparvata lugens)
Ten sampled rice seedlings held with urethane in a glass cylinder having an inner diameter of 4.5 cm and a length of 14 cm were set up in a plastic cup containing 40 mL of chemical solution diluted with water to 0.8 ppm. After 2 days, 10 larvae of brown planthoppers in the third instar larva were released in the glass cylinder. The glass cylinder was covered with a lid of medicine paper and kept in a chamber at a constant temperature of 25° C. for rearing.

COc1cccc(-c2c(O)[n+](CCC=N[N+](C)(C)C)c3ccccn3c2=O)c1 [Compound K-1]
mortality at 200 ppm [1]: ≥ 80%

O=c1c(-c2cccc(C(F)(F)F)c2)c([O-])[n+](CCC=NOc2ccc(Cl)nc2)c2ccccn12 [Compound K-2]
mortality at 200 ppm [2]: ≥ 80% | mortality at 200 ppm [3]: ≥ 80% | mortality at 200 ppm [4]: ≥ 80% | mortality at 0.8 ppm [5]: ≥ 80%

CC(C)(C)[S+]([O-])N=CCC[n+]1c([O-])c(-c2cccc(C(F)(F)F)c2)c(=O)n2ccccc21 (stereo not shown) [Compound K-3]
mortality at 200 ppm [1]: ≥ 80%

CC(C)=CCON=CCC[n+]1c([O-])c(CC=C(C)C)c(=O)n2ccccc21 [Compound K-7]
mortality at 200 ppm [1]: ≥ 80%

CCOC(C)ON=CCC[n+]1c([O-])c(CC=C(C)C)c(=O)n2ccccc21 (stereo not shown) [Compound K-8]
mortality at 200 ppm [1]: ≥ 80%

C=CCc1c([O-])[n+](CCC=NOC(C)OCC)c2ccccn2c1=O (stereo not shown) [Compound K-9]
mortality at 200 ppm [1]: ≥ 80%

O=c1c(-c2ccccc2)c([O-])[n+](CCC=NOC2COCCO2)c2ccccn12 (stereo not shown) [Compound K-10]
mortality at 200 ppm [1]: ≥ 80%
